Test results as given in US9387203B2, “Substituted aminoindane- and aminotetralinecarboxylic acids and the use thereof” (BAYER PHARMA AKTIENGESELLSCHAFT, priority 2012, dated 2016).

Tests used:
[1] = tested on: recombinant guanylate cyclase reporter cell line (CHO); assay: Effect on a recombinant guanylate cyclase reporter cell line (sGC-activating activity in the CHO reporter cell); type: cell-based
Experimental: B-1. Effect on a Recombinant Guanylate Cyclase Reporter Cell Line
The cellular activity of the compounds according to the invention is determined using a recombinant guanylate cyclase reporter cell line, as described in F. Wunder et al., Anal. Biochem. 339, 104-112 (2005).

[2] = tested on: rabbit arteria saphena rings; assay: Vasorelaxant effect in vitro (arteria saphena rings, phenylephrin contraction); set-up: species or system Rabbits; conditions: concentration reducing phenylephrin-induced contraction by 50%
Experimental: B-3. Vasorelaxant Effect In Vitro
Rabbits are anaesthetized by intravenous injection of thiopental sodium […] (about 50 mg/kg) and exsanguinated. The arteria saphena is removed and divided into 3 mm wide rings. The rings are individually mounted on in each case one triangular pair of hooks, open at the end, made of 0.3 mm strong special wire (Remanium®). Under pretension, each ring is transferred into 5 ml organ baths containing carbogen-gassed Krebs-Henseleit solution of a temperature of 37° C. having the following composition: NaCl 119 mM; KCl 4.8 mM; CaCl2×2 H2O 1 mM; MgSO4×7 H2O 1.4 mM; KH2PO4 1.2 mM; NaHCO3 25 mM; glucose 10 mM; bovine serum albumin 0.001%. The contractile force is determined with Statham UC2 cells, amplified and digitalized using A/D transducers (DAS-1802 HC, Keithley Instruments Munich), and recorded in parallel on linear recorders. Contractions are induced by addition of phenylephrin.
After several (in general 4) control cycles, the substance to be investigated is added in each further passage in increasing dosage, and the height of the contraction achieved under the influence of the test substance is compared with the height of the contraction achieved in the last preliminary passage. From this, the concentration which is necessary in order to reduce the contraction achieved in the preliminary control by 50% (IC50) is calculated. The standard administration volume is 5 μl. The proportion of DMSO in the bath solution corresponds to 0.1%.

[3] = biological target: T1, soluble guanylate cyclase (sGC) (Rattus norvegicus, UniProt P20595); assay: Stimulation of sGC enzyme activity (PPi detection, luciferase); type: biochemical; conditions: for EC50: sGC enzyme in vitro, read-out: EC50 (half-maximal effective concentration), activating action at the sGC enzyme in vitro
T1 construct: made in house
T1 sequence (P20595 1-619): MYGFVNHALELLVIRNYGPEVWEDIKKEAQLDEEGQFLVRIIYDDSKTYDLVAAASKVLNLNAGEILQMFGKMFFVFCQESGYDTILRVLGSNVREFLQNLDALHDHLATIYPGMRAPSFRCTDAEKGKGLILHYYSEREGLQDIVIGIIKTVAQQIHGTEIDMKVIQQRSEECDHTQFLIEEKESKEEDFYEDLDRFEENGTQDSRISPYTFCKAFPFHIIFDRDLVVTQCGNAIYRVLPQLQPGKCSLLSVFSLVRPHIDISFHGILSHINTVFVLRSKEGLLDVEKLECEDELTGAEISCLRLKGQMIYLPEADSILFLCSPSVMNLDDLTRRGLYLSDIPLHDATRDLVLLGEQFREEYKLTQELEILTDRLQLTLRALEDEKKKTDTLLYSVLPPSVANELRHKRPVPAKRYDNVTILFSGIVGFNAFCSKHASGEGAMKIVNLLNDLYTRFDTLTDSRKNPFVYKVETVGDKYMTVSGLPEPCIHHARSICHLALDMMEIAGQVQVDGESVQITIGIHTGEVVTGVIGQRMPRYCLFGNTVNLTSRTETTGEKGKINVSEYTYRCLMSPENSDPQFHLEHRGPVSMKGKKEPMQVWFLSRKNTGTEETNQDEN
T1 sequence (P19686 1-690 partner): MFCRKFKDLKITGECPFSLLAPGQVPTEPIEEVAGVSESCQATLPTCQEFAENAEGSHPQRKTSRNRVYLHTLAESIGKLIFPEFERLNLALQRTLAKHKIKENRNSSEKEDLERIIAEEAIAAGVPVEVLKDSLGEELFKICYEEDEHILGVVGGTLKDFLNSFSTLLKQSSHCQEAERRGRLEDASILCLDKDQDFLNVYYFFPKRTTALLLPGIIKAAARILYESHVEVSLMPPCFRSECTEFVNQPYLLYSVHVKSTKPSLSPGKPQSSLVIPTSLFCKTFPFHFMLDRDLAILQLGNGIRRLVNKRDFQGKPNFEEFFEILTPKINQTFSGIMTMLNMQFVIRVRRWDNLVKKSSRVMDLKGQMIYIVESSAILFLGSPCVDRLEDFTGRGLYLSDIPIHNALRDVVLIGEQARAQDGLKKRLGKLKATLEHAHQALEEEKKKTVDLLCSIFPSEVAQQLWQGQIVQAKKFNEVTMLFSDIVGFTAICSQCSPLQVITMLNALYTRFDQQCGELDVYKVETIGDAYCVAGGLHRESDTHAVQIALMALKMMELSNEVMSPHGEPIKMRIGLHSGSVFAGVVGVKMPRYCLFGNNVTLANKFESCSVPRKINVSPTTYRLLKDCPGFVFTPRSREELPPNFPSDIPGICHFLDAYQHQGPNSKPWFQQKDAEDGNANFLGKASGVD
Experimental: B-2. Stimulation of sGC Enzyme Activity
Soluble guanylate cyclase (sGC) converts on stimulation GTP into cGMP and pyrophosphate (PPi). PPi is detected with the aid of the assay described below. The signal produced in the assay increases as the reaction progresses and serves as a measure of the sGC enzyme activity under the given stimulation.
To carry out the assay, 29 μl of enzyme solution[0-10 nM soluble guanylate cyclase (prepared according to Honicka et al., J. Mol. Med. 77, 14-23 (1999)) in 50 mM TEA, 2 mM MgCl2, 0.1% BSA (fraction V), 0.005% Brij®, pH 7.5] are initially introduced into a microplate, and 1 μl of the substance to be tested (as a serially diluted solution in DMSO) is added. The mixture is incubated at room temperature for 10 min. Then 20 μl of detection mix [1.2 nM Firefly Luciferase (Photinus pyralis luciferase, Promega), 29 μM dehydroluciferin (prepared according to Bitler & McElroy, Arch. Biochem. Biophys. 72, 358 (1957)), 122 μM luciferin (Promega), 153 μM ATP (Sigma) and 0.4 mM DTT (Sigma) in 50 mM TEA, 2 mM MgCl2, 0.1% BSA (fraction V), 0.005% Brij®, pH 7.5] are added. The enzyme reaction is started by adding 20 μl of substrate solution[1.25 mM guanosine 5′-triphosphate (Sigma) in 50 mM TEA, 2 mM MgCl2, 0.1% BSA (fraction V), 0.005% Brij®, pH 7.5] and measured continuously in a luminometer. The extent of the stimulation by the substance to be tested can be determined relative to the signal of the unstimulated reaction.
The activation of haem-free guanylate cyclase is examined by addition of 25 μM of 1H-1,2,4-oxadiazolo[4,3-a]quinoxalin-1-one (ODQ) to the enzyme solution and subsequent incubation for 30 minutes and compared to the stimulation of the native enzyme.

Compound | IC50 ([2]; Oryctolagus cuniculus) [nM] | MEC (minimum effective concentration), activating action at the sGC enzyme in vitro [3] [nM] | EC50 [3] [nM] | IC50 [2] [nM] | MEC (minimum effective concentration), sGC-activating activity in the CHO reporter cell in vitro [1] [nM]
CC(C)(C)c1ccc(COc2ccccc2CCN(CCCCC(=O)O)C2CCCc3cc(C(=O)O)ccc32)cc1 (racemic) [Example 1, rac-5-[(2-{2[(4-tert-Butylbenzyl)oxy]phenyl}ethyl)(4-carboxybutyl)amino]-5,6,7,8-tetrahydronaphthalene-2-carboxylic acid] | 6 | 0.34 | 3 | – | 0.3
CC(C)(C)c1ccc(COc2ccccc2CCN(CCCCC(=O)O)C2CCCc3cc(C(=O)O)ccc32)cc1 (single isomer, unassigned; enantiomer 1) [Example 2, 5-[(2-{2-[(4-tert-Butylbenzyl)oxy]phenyl}ethyl)(4-carboxybutyl)amino]-5,6,7,8-tetrahydronaphthalene-2-carboxylic acid (enantiomer 1)] | – | 0.11 | 2.5 | 3.8 | 0.2
CC(C)(C)c1ccc(COc2ccccc2CCN(CCCCC(=O)O)C2CCCc3cc(C(=O)O)ccc32)cc1 (single isomer, unassigned; enantiomer 2) [Example 3, 5-[(2-{2-[(4-tert-Butylbenzyl)oxy]phenyl}ethyl)(4-carboxybutyl)amino]-5,6,7,8-tetrahydronaphthalene-2-carboxylic acid (enantiomer 2)] | – | 5 | 43 | 58 | 0.65
CC(C)(C)c1ccc(COc2ccccc2CCN(CCCCC(=O)O)C2CCc3cc(C(=O)O)ccc32)cc1 (stereo not drawn) [Example 4] | 31 | 0.21 | 4.5 | – | 3.0

More lines, main results first:

IC50 ([2]; Oryctolagus cuniculus) [nM] | MEC (minimum effective concentration), activating action at the sGC enzyme in vitro [3] [nM] | EC50 [3] [nM] | IC50 [2] [nM] | Compound | MEC (minimum effective concentration), sGC-activating activity in the CHO reporter cell in vitro [1] [nM]
– | 0.32 | 7.2 | – | O=C(O)CCCCN(CCc1ccccc1OCc1ccc(CCc2ccccc2)cc1)C1CCCc2cc(C(=O)O)ccc21 (stereo not drawn) [Example 8] | 0.3
– | 270 | – | – | N#Cc1cccc(COc2ccccc2CCN(CCCCC(=O)O)C2CCCc3cc(C(=O)O)ccc32)c1 (stereo not drawn) [Example 10] | 1000
– | 610 | – | – | Cc1cc(COc2ccccc2CCN(CCCCC(=O)O)C2CCCc3cc(C(=O)O)ccc32)n(C)n1 (stereo not drawn) [Example 11] | –
– | 55 | – | – | CC1CCC(=O)N1CCCCOc1ccccc1CCN(CCCCC(=O)O)C1CCCc2cc(C(=O)O)ccc21 (stereo not drawn) [Example 13] | –
– | 600 | – | – | O=C(O)CCCCN(CCc1ccccc1OCCCCN1CCCC1=O)C1CCCc2cc(C(=O)O)ccc21 (stereo not drawn) [Example 16] | –
